In paper PMC8966731 (2022) one finds cleaved bond data, which are given here for one substance.

The test system of this series is SARS-CoV-2 M^pro. To be noted: 37 °C, up to 1 h.

Bridge positions count the residues as written; N and C are the ends. Square brackets hold non-standard residues; d marks the D form.

For the substance “AcyLQYAVLRHKRREC ({CH2CO}-[dY]LQYAVLRHKRREC-NH2; thioether N-14; SMILES CC(C)C[C@@H]1NC(=O)[C@H](C(C)C)NC(=O)[C@H](C)NC(=O)[C@H](Cc2ccc(O)cc2)NC(=O)[C@H](CCC(N)=O)NC(=O)[C@H](CC(C)C)NC(=O)[C@@H](Cc2ccc(O)cc2)NC(=O)CSC[C@@H](C(N)=O)NC(=O)[C@H](CCC(=O)O)NC(=O)[C@H](CCCNC(=N)N)NC(=O)[C@H](CCCNC(=N)N)NC(=O)[C@H](CCCCN)NC(=O)[C@H](Cc2c[nH]cn2)NC(=O)[C@H](CCCNC(=N)N)NC1=O)”, the cleaved bond result is reported as “Gln3-Tyr4, minor, 1 h”.
